According to BindingDB's records for doi:10.1021/acs.jmedchem.9b01227 (Johann Wolfgang Goethe-University, 2019):

Molecular target: Mitogen-activated protein kinase kinase kinase 20 (ZAK) (Homo sapiens) (UniProt Q9NYL2)
Assay: Inhibition of ZAK (unknown origin) expressed in human HEK293 cells incubated for 2 hrs followed by NanoBRET NanoGlo Substrate addition by NanoBRET assay

Mitogen-activated protein kinase kinase kinase 20 (ZAK) (Homo sapiens), sequence (Q9NYL2 whole entry, looked up): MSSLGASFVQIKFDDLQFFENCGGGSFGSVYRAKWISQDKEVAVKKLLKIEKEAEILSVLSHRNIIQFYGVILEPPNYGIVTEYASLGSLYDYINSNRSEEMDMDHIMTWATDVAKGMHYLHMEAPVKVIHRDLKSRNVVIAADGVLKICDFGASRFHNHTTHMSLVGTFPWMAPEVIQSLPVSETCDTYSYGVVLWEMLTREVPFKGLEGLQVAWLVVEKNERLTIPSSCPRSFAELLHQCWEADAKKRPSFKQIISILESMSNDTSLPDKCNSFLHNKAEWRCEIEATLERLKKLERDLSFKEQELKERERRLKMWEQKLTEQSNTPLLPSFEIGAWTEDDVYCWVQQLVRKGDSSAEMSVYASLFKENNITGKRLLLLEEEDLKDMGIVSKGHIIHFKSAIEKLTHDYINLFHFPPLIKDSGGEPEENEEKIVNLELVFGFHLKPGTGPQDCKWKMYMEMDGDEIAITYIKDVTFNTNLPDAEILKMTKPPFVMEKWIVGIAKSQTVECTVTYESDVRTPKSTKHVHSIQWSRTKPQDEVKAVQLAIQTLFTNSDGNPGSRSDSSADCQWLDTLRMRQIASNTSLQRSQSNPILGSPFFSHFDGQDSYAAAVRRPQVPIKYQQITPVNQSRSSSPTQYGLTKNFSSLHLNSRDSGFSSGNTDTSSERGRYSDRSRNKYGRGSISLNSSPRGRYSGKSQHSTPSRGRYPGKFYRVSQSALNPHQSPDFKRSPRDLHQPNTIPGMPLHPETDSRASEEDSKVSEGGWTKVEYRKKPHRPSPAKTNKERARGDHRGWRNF

Row | Compound | IC50
1 | Nc1c(C(=O)NCc2ccc(C(=O)NCCCC3CCCCC3)cc2)cnn1-c1ccccc1 | 0.91 µM
2 | O=C(NCCCC1CCCCC1)c1ccc(CNC(=O)c2cnn(-c3ccccc3)c2C(F)(F)F)cc1 | 5.8 µM
